From ChEMBL document CHEMBL1909046, “DrugMatrix in vitro pharmacology data”

How the values were obtained:
[1] = molecular target: Prostaglandin G/H synthase 1 (Homo sapiens, UniProt P23219); assay: biochemical; format: tissue-based, Platelet;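 note: inhibition of COX-1 enzyme activity, with arachidonic acid supplied as substrate; in other assays of this panel Not Active means under 50% inhibition at 10 µM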
D(1A) dopamine receptor = D(1A) dopamine receptor (Homo sapiens, UniProt P21728); assay: DRUGMATRIX: Dopamine D1 radioligand binding (ligand: [3H] SCH-23390); format: cell membranes, CHO, Membrane; details: cho; Not Active = under 50% inhibition at 10 µM
Chain of D(1A) dopamine receptor (P21728 whole entry): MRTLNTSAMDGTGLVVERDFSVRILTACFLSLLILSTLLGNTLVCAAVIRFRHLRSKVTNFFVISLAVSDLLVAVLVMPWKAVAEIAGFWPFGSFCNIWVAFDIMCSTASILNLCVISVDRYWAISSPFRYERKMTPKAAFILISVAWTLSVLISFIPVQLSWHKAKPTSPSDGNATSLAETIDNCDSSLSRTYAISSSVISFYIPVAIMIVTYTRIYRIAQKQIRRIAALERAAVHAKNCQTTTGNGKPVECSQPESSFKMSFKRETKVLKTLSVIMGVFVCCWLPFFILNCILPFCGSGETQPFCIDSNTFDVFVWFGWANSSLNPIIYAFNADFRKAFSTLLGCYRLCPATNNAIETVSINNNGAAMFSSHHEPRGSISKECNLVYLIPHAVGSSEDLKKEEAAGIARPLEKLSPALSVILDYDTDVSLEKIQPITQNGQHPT

[2] = DRUGMATRIX: Imidazoline I2, Central radioligand binding (ligand: [3H] Idazoxan); format: cell membranes, Rattus norvegicus, Wistar, Cerebral cortex, Membrane; details: Not Active = under 50% inhibition at 10 µM
[3] = molecular target: T1, Nitric oxide synthase, inducible (Mus musculus, UniProt P29477); set-up: species or system Escherichia coli;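 note: inhibition of iNOS enzyme activity measured with L-arginine as substrate; in other assays of this panel Not Active means under 50% inhibition at 10 µM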
T1 sequence (P29477 whole entry): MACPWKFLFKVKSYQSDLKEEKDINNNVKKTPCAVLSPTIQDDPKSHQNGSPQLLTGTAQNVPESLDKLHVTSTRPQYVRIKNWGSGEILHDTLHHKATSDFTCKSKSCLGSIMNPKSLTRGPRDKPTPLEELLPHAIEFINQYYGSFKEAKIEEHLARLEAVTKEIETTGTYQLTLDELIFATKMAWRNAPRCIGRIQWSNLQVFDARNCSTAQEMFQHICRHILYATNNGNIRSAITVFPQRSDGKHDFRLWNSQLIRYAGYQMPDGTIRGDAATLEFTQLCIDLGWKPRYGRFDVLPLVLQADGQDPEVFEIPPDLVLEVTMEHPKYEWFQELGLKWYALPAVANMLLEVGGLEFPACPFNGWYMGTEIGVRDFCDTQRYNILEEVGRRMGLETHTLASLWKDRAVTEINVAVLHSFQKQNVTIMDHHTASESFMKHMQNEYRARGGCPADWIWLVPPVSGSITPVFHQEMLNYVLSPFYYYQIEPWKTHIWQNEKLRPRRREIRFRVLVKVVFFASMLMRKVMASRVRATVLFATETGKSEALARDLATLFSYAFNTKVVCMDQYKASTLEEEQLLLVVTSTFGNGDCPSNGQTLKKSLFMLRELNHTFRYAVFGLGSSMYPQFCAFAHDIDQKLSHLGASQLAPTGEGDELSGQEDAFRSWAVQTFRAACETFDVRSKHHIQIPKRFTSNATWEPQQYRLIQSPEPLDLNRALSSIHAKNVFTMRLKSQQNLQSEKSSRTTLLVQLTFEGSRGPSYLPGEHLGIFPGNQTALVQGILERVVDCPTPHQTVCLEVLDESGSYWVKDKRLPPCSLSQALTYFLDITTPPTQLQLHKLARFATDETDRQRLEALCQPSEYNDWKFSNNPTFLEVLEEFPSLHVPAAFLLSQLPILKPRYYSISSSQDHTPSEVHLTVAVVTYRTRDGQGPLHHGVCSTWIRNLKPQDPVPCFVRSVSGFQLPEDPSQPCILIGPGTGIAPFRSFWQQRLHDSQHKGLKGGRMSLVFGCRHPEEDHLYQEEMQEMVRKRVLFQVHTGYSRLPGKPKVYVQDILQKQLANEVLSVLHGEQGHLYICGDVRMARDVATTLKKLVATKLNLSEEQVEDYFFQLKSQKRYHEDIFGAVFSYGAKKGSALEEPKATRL

[4] = DRUGMATRIX: Potassium Channel [KATP] radioligand binding (ligand: [3H] Glyburide); format: cell membranes, Membrane; details: hit-t15; Not Active = under 50% inhibition at 10 µM
[5] = molecular target: Mitogen-activated protein kinase 3 (Homo sapiens, UniProt P27361); assay: DRUGMATRIX: Protein Serine/Threonine Kinase, ERK1 enzyme inhibition (substrate: Myelin Basic Protein); set-up: species or system Escherichia coli; details: Not Active = under 50% inhibition at 10 µM
Chain of Mitogen-activated protein kinase 3 (P27361 whole entry): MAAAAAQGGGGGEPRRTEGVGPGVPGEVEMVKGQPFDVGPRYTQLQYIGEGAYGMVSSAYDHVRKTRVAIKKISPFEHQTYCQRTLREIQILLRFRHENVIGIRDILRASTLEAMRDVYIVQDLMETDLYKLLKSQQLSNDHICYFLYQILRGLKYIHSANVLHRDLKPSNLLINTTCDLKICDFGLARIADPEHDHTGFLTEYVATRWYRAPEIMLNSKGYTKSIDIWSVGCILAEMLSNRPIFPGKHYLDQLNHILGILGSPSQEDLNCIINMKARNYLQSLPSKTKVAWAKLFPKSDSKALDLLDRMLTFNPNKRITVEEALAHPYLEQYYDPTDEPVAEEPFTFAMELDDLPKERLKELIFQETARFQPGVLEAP

Chain of Prostaglandin G/H synthase 1 (P23219 whole entry): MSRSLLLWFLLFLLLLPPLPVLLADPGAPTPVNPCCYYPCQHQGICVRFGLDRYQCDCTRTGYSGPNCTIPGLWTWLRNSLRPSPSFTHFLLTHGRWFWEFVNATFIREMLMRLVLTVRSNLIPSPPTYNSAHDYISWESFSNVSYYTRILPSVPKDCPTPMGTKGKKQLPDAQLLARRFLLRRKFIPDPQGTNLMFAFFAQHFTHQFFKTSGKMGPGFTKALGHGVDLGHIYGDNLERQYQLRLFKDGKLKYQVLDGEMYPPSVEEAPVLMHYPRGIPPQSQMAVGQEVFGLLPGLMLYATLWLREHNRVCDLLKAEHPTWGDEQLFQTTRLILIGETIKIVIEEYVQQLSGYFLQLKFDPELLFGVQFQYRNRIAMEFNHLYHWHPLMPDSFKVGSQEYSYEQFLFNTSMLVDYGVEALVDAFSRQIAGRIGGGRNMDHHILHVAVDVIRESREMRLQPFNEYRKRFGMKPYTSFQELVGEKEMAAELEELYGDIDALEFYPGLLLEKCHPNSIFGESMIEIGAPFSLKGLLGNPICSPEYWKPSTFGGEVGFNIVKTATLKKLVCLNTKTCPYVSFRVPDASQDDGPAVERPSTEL

Row | SMILES | IC50 ([1]; platelet) | IC50 (D(1A) dopamine receptor) | IC50 [2] | Ki [2] | IC50 [3] | IC50 [4] | Ki [4] | IC50 ([5]; read-out: IC50) | IC50 [5] | Ki ([2]; read-out: Ki) | IC50 ([1]; read-out: IC50)
1 | CC(=O)[C@@]1(O)CC[C@H]2[C@@H]3CCC4=CC(=O)CC[C@]4(C)[C@H]3CC[C@@]21C [HYDROXYPROGESTERONE] | Not Active | Not Active | Not Active | Not Active | Not Active | Not Active | Not Active | 3.16 µM |  |  | 
2 | COC1=C(OC)C(=O)C(CCCCCCCCCCO)=C(C)C1=O [IDEBENONE] | Not Active | Not Active | Not Active | Not Active | Not Active | Not Active | Not Active |  | Not Active |  | 
3 | CC(C)NNC(=O)c1ccncc1 [IPRONIAZID] | Not Active | Not Active | Not Active | Not Active | Not Active | Not Active | Not Active |  | Not Active |  | 
4 | Cc1c(OCC(F)(F)F)ccnc1C[S+]([O-])c1nc2ccccc2[nH]1 (configuration not stated) [LANSOPRAZOLE] | Not Active | Not Active | Not Active | Not Active | Not Active | Not Active | Not Active |  | Not Active |  | 
5 | O=c1cc(N2CCOCC2)oc2c(-c3ccccc3)cccc12 [LY-294002] | Not Active | Not Active | Not Active | Not Active | Not Active | Not Active | Not Active |  | Not Active |  | 
6 | COc1ccc2[nH]cc(CCNC(C)=O)c2c1 [MELATONIN] | Not Active | Not Active | Not Active | Not Active | Not Active | Not Active | Not Active |  | Not Active |  | 
7 | NC(=O)C[S+]([O-])C(c1ccccc1)c1ccccc1 (configuration not stated) [MODAFINIL] | Not Active | Not Active | Not Active | Not Active | Not Active | Not Active | Not Active |  | Not Active |  | 
8 | CCN(CC)CCOCCC1=CCC2CC1C2(C)C (configuration not stated) [MYRTECAINE] | Not Active | Not Active | Not Active | Not Active | Not Active | Not Active | Not Active |  | Not Active |  | 
9 | O=C(N/N=C/c1ccc([N+](=O)[O-])o1)c1cc([N+](=O)[O-])cc([N+](=O)[O-])c1O [NIFURSOL] | Not Active | Not Active | Not Active | Not Active | Not Active | Not Active | Not Active |  | Not Active |  | 
10 | COC(=O)Nc1nc2ccc(C(=O)c3cccs3)cc2[nH]1 [NOCODAZOLE] | Not Active | Not Active | Not Active | Not Active | Not Active | Not Active | Not Active |  | Not Active |  | 
11 | C#CC1(O)CC[C@H]2[C@@H]3CCC4=CC(=O)CC[C@@H]4[C@H]3CC[C@@]21CC (some centres not stated) [NORGESTREL] | Not Active | Not Active | Not Active | Not Active | Not Active | Not Active | Not Active |  | Not Active |  | 
12 | COC(=O)Nc1nc2ccc([S+]([O-])c3ccccc3)cc2[nH]1 (configuration not stated) [OXFENDAZOLE] | Not Active | Not Active | Not Active | Not Active | Not Active | Not Active | Not Active |  | Not Active |  | 
13 | CC(=O)O[C@H]1C(=O)[C@@]2(C)[C@H]([C@H](OC(=O)c3ccccc3)[C@]3(O)C[C@H](OC(=O)[C@H](O)[C@@H](NC(=O)c4ccccc4)c4ccccc4)C(C)=C1C3(C)C)[C@]1(OC(C)=O)CO[C@@H]1C[C@@H]2O [PACLITAXEL] | Not Active | Not Active | Not Active | Not Active | Not Active | Not Active | Not Active |  | Not Active |  | 
14 | C[n+]1ccc(-c2cc[n+](C)cc2)cc1.[Cl-].[Cl-] [PARAQUAT DICHLORIDE] | Not Active | Not Active | Not Active | Not Active | Not Active | Not Active | Not Active |  | Not Active |  | 
15 | CC(C)NCC(O)COc1cccc2[nH]ccc12 (configuration not stated) [PINDOLOL] | Not Active | Not Active | Not Active | Not Active | Not Active | Not Active | Not Active |  | Not Active |  | 
16 | CCn1cc(C(=O)O)c(=O)c2cnc(N3CCCC3)nc21 [PIROMIDIC ACID] | Not Active | Not Active | Not Active | Not Active | Not Active | Not Active | Not Active |  | Not Active |  | 
17 | C[n+]1ccccc1/C=N/O.[Cl-] [PRALIDOXIME CHLORIDE] | Not Active | Not Active | Not Active | Not Active | Not Active | Not Active | Not Active |  | Not Active |  | 
18 | COc1cc2nc(N3CCN(C(=O)c4ccco4)CC3)nc(N)c2cc1OC [PRAZOSIN] | Not Active | Not Active |  |  | Not Active | Not Active | Not Active |  | Not Active | 0.633 µM | 
19 | C[C@]12C=CC(=O)C=C1CC[C@@H]1[C@@H]2[C@@H](O)C[C@@]2(C)[C@H]1CC[C@]2(O)C(=O)CO [PREDNISOLONE] | Not Active | Not Active | Not Active | Not Active | Not Active | Not Active | Not Active |  | Not Active |  | 
20 | CC(=O)[C@H]1[C@H](C#N)C[C@H]2[C@@H]3CC=C4C[C@@H](O)CC[C@]4(C)[C@H]3CC[C@@]21C [PREGNENOLONE CARBONITRILE] | Not Active | Not Active | Not Active | Not Active | Not Active | Not Active | Not Active |  | Not Active |  | 
21 | CCCN(CCC)S(=O)(=O)c1ccc(C(=O)O)cc1 [PROBENECID] | Not Active | Not Active | Not Active | Not Active | Not Active | Not Active | Not Active |  | Not Active |  | 
22 | CCCNCC(O)COc1ccccc1C(=O)CCc1ccccc1 (configuration not stated) [PROPAFENONE] | Not Active | Not Active | Not Active | Not Active | Not Active | Not Active | Not Active |  | Not Active |  | 
23 | CCCOc1ccc(C(=O)OCCN(CC)CC)cc1N [PROPARACAINE] | Not Active | Not Active | Not Active | Not Active | Not Active | Not Active | Not Active |  | Not Active |  | 
24 | CC(C)c1cccc(C(C)C)c1O [PROPOFOL] |  | Not Active | Not Active | Not Active | Not Active | Not Active | Not Active |  | Not Active |  | 3.83 µM
25 | C[C@@H]1O[C@@H](O[C@@H]2C=C3CC[C@@H]4[C@H](CC[C@]5(C)[C@@H](c6ccc(=O)oc6)CC[C@]45O)[C@@]3(C)CC2)[C@H](O)[C@H](O)[C@H]1O [PROSCILLARIDIN] | Not Active | Not Active | Not Active | Not Active | Not Active | Not Active | Not Active |  | Not Active |  | 
26 | Oc1cccc(O)c1O [PYROGALLOL] | Not Active | Not Active | Not Active | Not Active | Not Active | Not Active | Not Active |  | Not Active |  | 
